According to PMC9012672 (Clinical cancer research : an official journal of the …, 2022):

What was measured:
[1] = Clinical pharmacology: elimination, food effect, covariate effects on exposure; settings: human, in vivo
[2] = CodeBreaK 100 multiple-dose PK; format: in vivo, human; settings: for AUC(0-t) / Cmax / Tmax / half-life: human, plasma, po
[3] = tested on: patients with NSCLC; test: CodeBreaK 100; format: in vivo
[4] = tested on: rats; test: 3-month rat toxicology study; format: in vivo
[5] = molecular target: CYP3A4 (Homo sapiens, UniProt P08684); test: Metabolism of sotorasib; format: in vitro ADME
[6] = tested on: Beagle dogs; settings: 3-month dog study; cited from earlier work
[7] = 204 patients with NSCLC, 960 mg daily

Chain of CYP3A4 (P08684 whole entry): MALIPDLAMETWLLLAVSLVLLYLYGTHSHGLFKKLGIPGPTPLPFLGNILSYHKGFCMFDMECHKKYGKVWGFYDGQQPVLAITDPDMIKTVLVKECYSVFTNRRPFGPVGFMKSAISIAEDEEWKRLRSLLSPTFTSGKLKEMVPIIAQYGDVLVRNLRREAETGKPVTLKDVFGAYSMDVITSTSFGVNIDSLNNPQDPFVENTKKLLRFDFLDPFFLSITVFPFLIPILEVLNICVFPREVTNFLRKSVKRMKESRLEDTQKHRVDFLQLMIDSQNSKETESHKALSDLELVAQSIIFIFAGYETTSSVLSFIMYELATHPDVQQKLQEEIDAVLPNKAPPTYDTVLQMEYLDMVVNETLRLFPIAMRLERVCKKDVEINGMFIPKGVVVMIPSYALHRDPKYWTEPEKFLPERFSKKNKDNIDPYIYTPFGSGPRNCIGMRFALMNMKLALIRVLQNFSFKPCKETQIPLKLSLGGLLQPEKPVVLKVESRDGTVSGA

SMILES: C=CC(=O)N1CCN(c2nc(=O)n(-c3c(C)ccnc3C(C)C)c3nc(-c4c(O)cccc4F)c(F)cc23)[C@@H](C)C1 [sotorasib]
- Food effect on administration [1]: may be taken with or without food
- Route of elimination [1]: mainly eliminated via the fecal route with minor renal excretion
- Systemic exposures (AUC0–24h and Cmax) across dose levels ([2]; daily doses ranging from 180 mg to 960 mg): similar
- AUC(0-t) ([2]; 180 mg): 31700 ng·h/mL
- Cmax ([2]; 180 mg): 6440 ng/mL
- Tmax ([2]; 180 mg): 0.73 h
- half-life ([2]; 180 mg): 5.13 h
- AUC(0-t) ([2]; 360 mg): 38900 ng·h/mL
- Cmax ([2]; 360 mg): 6310 ng/mL
- half-life ([2]; 360 mg): 5.53 h
- AUC(0-t) ([2]; 720 mg): 42100 ng·h/mL
- Cmax ([2]; 720 mg): 5450 ng/mL
- Tmax ([2]; 720 mg): 1.1 h
- half-life ([2]; 720 mg): 4.75 h
- AUC(0-t) ([2]; 960 mg): 32400 ng·h/mL
- Cmax ([2]; 960 mg): 5390 ng/mL
- Tmax ([2]; 960 mg): 1.1 h
- half-life ([2]; 960 mg): 5.07 h
- Adverse event: abdominal pain [3, 7]: 15%
- Adverse event: constipation [3, 7]: 16%
- Adverse event: cough [3, 7]: 20%
- Adverse event: decreased appetite [3, 7]: 13%
- Adverse event: diarrhea [3, 7]: 42%
- Adverse event: dyspnea [3, 7]: 16%
- Adverse event: edema [3, 7]: 15%
- Adverse event: musculoskeletal pain [3, 7]: 35%
- Adverse event: pneumonia [3, 7]: 12%
- Adverse event: rash [3, 7]: 12%
- Adverse event: vomiting [3, 7]: 17%
- Discontinuation due to hepatotoxicity [3, 7]: 4.9%
- Permanent discontinuation due to an AE [3, 7]: 9%
- Serious AE: diarrhea [3, 7]: 2%
- Serious AE: hepatotoxicity [3, 7]: 3.4%
- Serious AE: pneumonia [3, 7]: 8%
- Serious AEs, patients [3, 7]: 50%
- Adverse event: hepatotoxicity ([3]; 204 patients with NSCLC, 960 mg daily, grouped term): 25%
- Resolution of hepatotoxicity after dose reduction or interruption ([3]; cases with dose reduction or interruption): 91%
- Patients with hepatotoxicity requiring dose reduction or interruption ([3]; of the 50 patients with an event of hepatotoxicity (n=23)): 46%
- Patients with hepatotoxicity treated with systemic corticosteroids ([3]; of the 357 patients treated with 960 mg daily): 5%
- Most common adverse reactions (≥20%) ([3]; patients with NSCLC in CodeBreaK 100): diarrhea, musculoskeletal pain, nausea, fatigue, hepatotoxicity, and cough
- Hepatotoxicity events that were severe (Grade 3 or 4) ([3]; primary safety population): 12%
- Renal toxicity events ([3]; primary safety population): rare, mild to moderate, and did not require dose reduction or discontinuation
- Interstitial lung disease/pneumonitis ([3]; primary safety population, three patients, one fatal case): 1.5%
- Most notable toxicity (renal toxicity) findings ([4]; 3-month rat study): renal tubular degeneration/necrosis and increased kidney weight with biomarkers of renal tubular injury
- Recovery of renal toxicity ([4]; after two months): Partial recovery
- Main metabolising enzyme [5]: primarily metabolized by CYP3A4
- Renal toxicity [6]: not identified
